Measurements taken from BindingDB's records for doi:10.1016/j.bmcl.2018.08.039 (National Institutes of Health, 2018).

Biological target: Bromodomain-containing protein 4 (Homo sapiens, UniProt O60885)
Assay: Displacement of biotinylated acetylated peptide from recombinant human partial length BRD4 long isoform bromodomain 1/2 (N44 to E460 residues) expressed in Escherichia coli BL21 measured after 1 hr by Bromoscan method

Kd [nM] | SMILES
2900 | CNc1nc(NCc2cccc(Cl)c2)c2cc(-c3c(C)noc3C)ccc2n1
250 | Cc1noc(C)c1-c1ccc2nc(-c3ccc(CO)nc3)nc(NCc3cccc(Cl)c3)c2c1
980 | Cc1noc(C)c1-c1ccc2nc(Cl)nc(NCc3cccc(Cl)c3)c2c1
140 | Cc1noc(C)c1-c1ccc2nc(-n3cc(CCO)cn3)nc(NCc3cccc(Cl)c3)c2c1
